Data taken from patent EP0071892A2, “Phospholipid derivatives, process for preparation thereof and pharmaceutical composition of the same” (priority 1981, dated 1983).
Read-outs that look alike come from different tables or passages of the source.

Assays:
[1] = tested on: Fibrosarcoma Meth A; experiment: Test Method A: intradermally inoculated Meth A tumor in mice, intratumoral injection of test compound, tumor growth inhibition; format: in vivo, BALB/c mice; conditions: 100 µg/mouse intratumorally once daily from Day 1 to Day 4 postimplant; for Mean of two diameters of the growing tumor: 1 x 10^5 Meth A cells intradermally; for responders at 0.1 mg / inhibition in vivo at 0.1 mg: Meth-A; for responders at 0.1 mg: read-out: Ratio of tumor free mice [Number of tumor free mice/ Number of mice used as a group] (converted); for inhibition in vivo at 0.1 mg: Mus musculus, read-out: Tumor growth inhibition (%) [(1-T/c)x100]
Description: Groups of six female BALB/c mice, aged 12 weeks and weighing 19 - 21 g were used.
Fib,rosarcoma Meth A (hereinafter referred to as Meth A) was successively transferred every 7 days into BALB/c mice by intraperitoneal inoculation of the ascites cells thereof and the Meth A in the ascites cells as harvested 6 days after the inoculation was used as tumor cells.
Each of the BALB/c mice was inoculated intradermally with 1 x 10^5 Meth A cells in 0.05 ml Hanks solution.
Test compound was dissolved in 0.5% methylcellulose saline solution, and was intratumorally injected to each of the mice in doses of 100 µg/mouse once daily from Day 1 to Day 4 postimplant.
The control group was given with a vehicle alone in the same way.
The antitumor effectiveness of the test compound was estimated by tumor growth inhibition (1-T/C). • T: Mean diameter of the growing tumor of the medicated group • C: Mean diameter of the growing tumor of the control group

[2] = tested on: Fibrosarcoma Meth A; experiment: Test Method B: intrapleurally inoculated Meth A tumor in mice, injection into pleural cavity, mean survival time; format: in vivo, BALB/c mice; parameters: dose or concentration left out as unconfirmed; conditions: for Anti-tumor activity (%) *d: comparison of mean survival time of medicated group (T) and control group (C), into pleural cavity three times; for Mean survival time: into pleural cavity three times (before 14 days, after 1 hour and after 3 days of tumor implantation), 5 x 10^5 Meth A cells intrapleurally
Description: Groups of eight female BALB/c mice, aged 8-9 weeks and weighing 18.0-22.5 g were used.
Fibrosarcoma Meth A (hereinafter referred to as Meth A) was successively transferred every 7 days into BALB/c mice by intraperitoneal inoculation of the ascites cells thereof and the Meth A in the ascites cells as harvested 6 or 7 days after the inoculation was used as tumor cells.
Each of the BALB/c mice was inoculated intrapleurally with 5 x 10^5 Meth A cells in 0.1 ml Hanks solution.
Test compound was dissolved in phosphate buffer saline solution, and was injected into pleural cavity to each of the mice in doses of 100 pg/0.05 ml/mouse three times, i.e. before 14 days, after 1 hour and after 3 days of tumor implantation.
The antitumor activity of the test compound was estimated by comparing mean survival time of the two groups. • T : Mean survival time of the medicated group • C : Mean survival time of the control group

Structure (SMILES)	Mean of two diameters of the growing tumor ([1]; Day 14)	Ratio of tumor free mice [Number of tumor free mice/ Number of mice used as a group] ([1]; Day 21)	Mean of two diameters of the growing tumor ([1]; Day 21)	responders at 0.1 mg ([1]; Day 14)	inhibition in vivo at 0.1 mg ([1]; Day 14)	inhibition in vivo at 0.1 mg ([1]; Day 21)	Anti-tumor activity (%) *d [2]	Mean survival time [2]
CCCCCCCCCCCCCCCCCCOCC(COP(=O)(O)OCCN1CCN(C)CC1)OCC (racemic) [3-(1), (rac)-l-O-Octadecyl-2-0-ethyl-glycerol-3-[2-(4-methyl-l-piperazinyl)ethyl]phosphate]	0 mm	6/6	0 mm	100%	100%	100%	342%	20.5 days
CCCCCCCCCCCCCCCCCCOCC(COP(=O)([O-])OCC[n+]1ccccc1)OC (racemic) [Example 1, (rac)-l-O-octadecyl-2-0-methyl-glycerol-3-[2-(1-pyridinio)ethyl]phosphate]	0 mm	6/6	0 mm	100%	100%	100%	367%	22.0 days
